# From US7915270B2, “Oxazole ketones as modulators of fatty acid amide hydrolase” (The Scripps Research Institute, priority 2006, dated 2011)
# Experiments:
# Rat FAAH = target: T1, Rat FAAH (Rattus norvegicus, UniProt P97612); assay: Assay Method 2: FAAH assay, 3H-anandamide hydrolysis in cell homogenate (SK-N-MC cells transfected with rat FAAH); assay type: biochemical; details: 3H-AEA 80 nM, rt 1 h, pH 9
# T1 construct: expressed in transfected cells
# T1 sequence (P97612 1-579): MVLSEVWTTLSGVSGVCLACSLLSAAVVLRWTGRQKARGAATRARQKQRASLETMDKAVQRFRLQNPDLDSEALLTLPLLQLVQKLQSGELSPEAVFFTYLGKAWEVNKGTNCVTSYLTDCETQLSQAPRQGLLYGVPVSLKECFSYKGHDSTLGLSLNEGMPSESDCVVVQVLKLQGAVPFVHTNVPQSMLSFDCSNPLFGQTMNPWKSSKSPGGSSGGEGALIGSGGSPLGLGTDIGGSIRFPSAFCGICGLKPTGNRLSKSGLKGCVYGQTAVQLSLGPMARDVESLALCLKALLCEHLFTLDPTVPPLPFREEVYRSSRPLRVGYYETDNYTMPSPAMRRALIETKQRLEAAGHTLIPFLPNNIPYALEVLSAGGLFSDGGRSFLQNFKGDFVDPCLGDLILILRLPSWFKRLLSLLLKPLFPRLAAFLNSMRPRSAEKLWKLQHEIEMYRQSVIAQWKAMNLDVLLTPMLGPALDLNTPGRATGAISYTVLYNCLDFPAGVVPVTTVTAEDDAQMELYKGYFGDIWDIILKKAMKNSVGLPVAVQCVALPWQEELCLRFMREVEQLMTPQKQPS
# Procedure: A. Transfection of Cells with Rat FAAH
# (§1) A 10-cm tissue culture dish with a confluent monolayer of SK—N-MC cells was split 2 days (d) prior to transfection. Using sterile technique, the media was removed and the cells were detached from the dish by the addition of trypsin. One fifth of the cells were then placed onto a new 10-cm dish. Cells were grown in a 37° C. incubator with 5% CO2 in Minimal Essential Media Eagle with 10% Fetal Bovine Serum. After 2 d, cells were approximately 80% confluent. These cells were removed from the dish with trypsin and pelleted in a clinical centrifuge. The pellet was re-suspended in 400 μL complete media and transferred to an electroporation cuvette with a 0.4 cm gap between the electrodes. Supercoiled rat FAAH cDNA (1 μg) was added to the cells and mixed. The voltage for the electroporation was set at 0.25 kV, and the capacitance was set at 960 μF. After electroporation, the cells were diluted into complete media (10 mL) and plated onto four 10-cm dishes. Because of the variability in the efficiency of electroporation, four different concentrations of cells were plated. The ratios used were 1:20, 1:10, and 1:5, with the remainder of the cells being added to the fourth dish. The cells were allowed to recover for 24 h before adding the selection media (complete media with 600 μg/mL G418). After 10 d, dishes were analyzed for surviving colonies of cells. Dishes with well-isolated colonies were used. Cells from individual colonies were isolated and tested.
# The assay mixture consisted of 50 μL of the cell homogenate, 10 μL of the test compound, and 40 μL of anandamide [1-^3H-ethanolamine] (^3H-AEA, Perkin-Elmer, 10.3 Ci/mmol), which was added last, for a final tracer concentration of 80 nM. The reaction mixture was incubated at rt for 1 h. During the incubation, 96-well Multiscreen filter plates (catalog number MAFCNOB50; Millipore, Bedford, Mass., USA) were loaded with 25 μL of activated charcoal (Multiscreen column loader, catalog number MACL09625, Millipore) and washed once with 100 μL of MeOH. […] After the 1 h incubation, 60 μL of the reaction mixture were transferred to the charcoal plates, which were then assembled on top of the DYNEX plates using Centrifuge Alignment Frames (catalog number MACF09604, Millipore). The unbound labeled ethanolamine was centrifuged through to the bottom plate (5 min at 2000 rpm), which was preloaded with the scintillant, as described above. The plates were sealed and left at rt for 1 h before counting on a Hewlett Packard TopCount.
# FAAH [1] = target: T2, FAAH (Homo sapiens, UniProt O00519); assay: Assay Method 1B: FAAH assay, 3H-anandamide hydrolysis in cell homogenate (T84 or SK-N-MC cells transfected with human FAAH); assay type: biochemical; design: expressed in transfected cells; details: 3H-AEA 80 nM, rt 1 h, pH 9
# T2 sequence (O00519 1-579): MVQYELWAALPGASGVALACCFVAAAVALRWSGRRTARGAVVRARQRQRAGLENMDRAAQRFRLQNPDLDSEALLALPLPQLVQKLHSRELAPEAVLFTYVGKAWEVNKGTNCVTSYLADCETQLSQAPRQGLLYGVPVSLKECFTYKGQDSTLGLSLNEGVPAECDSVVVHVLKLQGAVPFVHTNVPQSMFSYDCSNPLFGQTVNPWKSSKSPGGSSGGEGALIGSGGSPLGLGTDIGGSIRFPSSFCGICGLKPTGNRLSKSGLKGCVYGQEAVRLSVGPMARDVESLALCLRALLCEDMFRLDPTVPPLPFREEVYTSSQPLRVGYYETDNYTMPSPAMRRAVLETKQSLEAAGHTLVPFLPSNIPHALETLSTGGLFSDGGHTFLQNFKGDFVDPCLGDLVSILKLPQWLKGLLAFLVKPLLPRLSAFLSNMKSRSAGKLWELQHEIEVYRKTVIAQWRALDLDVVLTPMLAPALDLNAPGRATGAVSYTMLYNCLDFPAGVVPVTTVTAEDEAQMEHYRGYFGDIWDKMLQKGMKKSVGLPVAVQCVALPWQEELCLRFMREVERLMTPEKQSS
# Procedure: as §1, with “Transfection of Cells with Human FAAH A 10-cm” for “A 10-cm”, “electrodes. Supercoiled human FAAH cDNA” for “electrodes. Supercoiled rat FAAH cDNA”, “and tested. […] The reaction mixture was incubated at rt for 1 h. During the incubation, 96-well Multiscreen filter plates (catalog number MAFCNOB50; Millipore, Bedford, Mass., USA) were loaded with 25 μL of activated charcoal (Multiscreen column loader, catalog number MACL09625, Millipore) and washed once with 100 μL of MeOH. Also during the incubation, 96-well DYNEX MicroLite plates (catalog number NL510410) were loaded with 100 μL of MicroScint40 (catalog number 6013641, Packard Bioscience, Meriden, Conn., USA). After the 1 h incubation, 60 μL of the reaction mixture were transferred to the charcoal plates, which were then assembled on top of the DYNEX plates using Centrifuge Alignment Frames (catalog number MACF09604, Millipore). The unbound labeled ethanolamine was centrifuged through to the bottom plate (5 min at 2000 rpm), which was preloaded with the scintillant, as described above. The plates were sealed and left at rt for 1 h before counting on a Hewlett Packard TopCount.” for “and tested.”
# FAAH [2] = target: T3, FAAH (Rattus norvegicus, UniProt P97612); assay: Assay Method 1A: FAAH enzyme assay, 14C-oleamide hydrolysis, solubilized liver plasma membrane extract;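 also: ki obtained by Dixon analysis, taking the x-intercept of inhibitor concentration versus reciprocal rate plots at fixed substrate level and correcting for substrate concentration relative to Km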
# T3 sequence (P97612 1-579): T1 sequence (P97612 1-579)
# Procedure: Linear least squares fits were used for all reaction progress curves and R^2 values were consistently >0.97. […] Ki values were determined by the Dixon Method (x-intercepts of weighted linear fits of [I] versus 1/rate plots at constant substrate concentration, which were converted to Ki values using the formula Ki=−xint/[1+[S]/Km]).
SMILES,IC50 (Rat FAAH),IC50 (FAAH [1]),Ki (FAAH [2])
"O=C(CCCCCCc1ccccc1)c1ncc(-c2ccc([N+](=O)[O-])cc2)o1 [Example 3, 1-(5-(4-Nitrophenyl)oxazol-2-yl)-7-phenylheptan-1-one]",0.5 µM,0.11 µM,–
"O=C(CCCCCCc1ccccc1)c1ncc(-c2cccc(C(=O)C(F)(F)F)c2)o1 [Example 5, 7-Phenyl-1-(5-(3-(2,2,2-trifluoroacetyl)phenyl)oxazol-2-yl)heptan-1-one]",0.5 µM,0.04 µM,–
"O=C(CCCCCCc1ccccc1)c1ncc(-c2ccc(C(=O)C(F)(F)F)cc2)o1 [Example 6, 7-Phenyl-1-(5-(4-(2,2,2-trifluoroacetyl)phenyl)oxazol-2-yl)heptan-1-one]",1.7 µM,0.26 µM,–
"NC(=O)c1ccccc1-c1cnc(C(=O)CCCCCCc2ccccc2)o1 [Example 7, 2-(2-(7-Phenylheptanoyl)oxazol-5-yl)benzamide]",1.8 µM,0.16 µM,–
"NC(=O)c1cccc(-c2cnc(C(=O)CCCCCCc3ccccc3)o2)c1 [Example 8, 3-(2-(7-Phenylheptanoyl)oxazol-5-yl)benzamide]",0.034 µM,0.012 µM,–
"NC(=O)c1ccc(-c2cnc(C(=O)CCCCCCc3ccccc3)o2)cc1 [Example 9, 4-(2-(7-Phenylheptanoyl)oxazol-5-yl)benzamide]",0.06 µM,0.01 µM,–
"O=C(CCCCCCc1ccccc1)c1ncc(-c2ccc(F)cc2)o1 [Example 12, 1-(5-(4-Fluorophenyl)oxazol-2-yl)-7-phenylheptan-1-one]",1 µM,0.1 µM,–
"COc1ccccc1-c1cnc(C(=O)CCCCCCc2ccccc2)o1 [Example 13, 1-(5-(2-Methoxyphenyl)oxazol-2-yl)-7-phenylheptan-1-one]",–,1.9 µM,0.4 µM
"COc1ccc(-c2cnc(C(=O)CCCCCCc3ccccc3)o2)cc1 [Example 15, 1-(5-(4-Methoxyphenyl)oxazol-2-yl)-7-phenylheptan-1-one]",4 µM,0.77 µM,–
"N#Cc1ccccc1-c1cnc(C(=O)CCCCCCc2ccccc2)o1 [Example 16, 2-(2-(7-Phenylheptanoyl)oxazol-5-yl)benzonitrile]",2 µM,0.11 µM,–
"NS(=O)(=O)c1ccccc1-c1cnc(C(=O)CCCCCCc2ccccc2)o1 [Example 19, 2-(2-(7-Phenylheptanoyl)oxazol-5-yl)benzenesulfonamide]",–,2 µM,1.5 µM
"COC(=O)c1ccnc(-c2cnc(C(=O)CCCCCCc3ccccc3)o2)c1 [Example 35, Methyl 2-(2-(7-phenylheptanoyl)oxazol-5-yl)isonicotinate]",–,–,0.001 µM
"O=C(CCCCCCc1ccccc1)c1ncc(-c2ncccc2C(=O)O)o1 [Example 40, 2-(2-(7-Phenylheptanoyl)oxazol-5-yl)nicotinic acid]",–,–,> 0.05 µM
"Cc1cccc(-c2cnc(C(=O)CCCCCCc3ccccc3)o2)n1 [Example 41, 1-(5-(6-Methylpyridin-2-yl)oxazol-2-yl)-7-phenylheptan-1-one]",–,–,0.003 µM
"Cc1ccc(-c2cnc(C(=O)CCCCCCc3ccccc3)o2)nc1 [Example 42, 1-(5-(5-Methylpyridin-2-yl)oxazol-2-yl)-7-phenylheptan-1-one]",–,–,0.003 µM
"Cc1ccnc(-c2cnc(C(=O)CCCCCCc3ccccc3)o2)c1 [Example 43, 1-(5-(4-Methylpyridin-2-yl)oxazol-2-yl)-7-phenylheptan-1-one]",–,–,0.001 µM
"Cc1cccnc1-c1cnc(C(=O)CCCCCCc2ccccc2)o1 [Example 44, 1-(5-(3-Methylpyridin-2-yl)oxazol-2-yl)-7-phenylheptan-1-one]",–,–,0.015 µM
"COc1ccnc(-c2cnc(C(=O)CCCCCCc3ccccc3)o2)c1 [Example 45, 1-(5-(4-Methoxypyridin-2-yl)oxazol-2-yl)-7-phenylheptan-1-one]",–,–,0.002 µM
"N#Cc1ccnc(-c2cnc(C(=O)CCCCCCc3ccccc3)o2)c1 [Example 46, 2-(2-(7-Phenylheptanoyl)oxazol-5-yl)isonicotinonitrile]",–,–,0.002 µM
"O=C(CCCCCCc1ccccc1)c1ncc(-c2cc(C(F)(F)F)ccn2)o1 [Example 47, 7-Phenyl-1-(5-(4-(trifluoromethyl)pyridin-2-yl)oxazol-2-yl)heptan-1-one]",–,–,0.004 µM
"O=C(CCCCCCc1ccccc1)c1ncc(-c2cc([N+](=O)[O-])ccn2)o1 [Example 48, 1-(5-(4-Nitropyridin-2-yl)oxazol-2-yl)-7-phenylheptan-1-one]",–,–,0.003 µM
"Nc1ccnc(-c2cnc(C(=O)CCCCCCc3ccccc3)o2)c1 [Example 49, 1-(5-(4-Aminopyridin-2-yl)oxazol-2-yl)-7-phenylheptan-1-one]",–,–,0.025 µM
"COc1cc(-c2cnc(C(=O)CCCCCCc3ccccc3)o2)nc(OC)n1 [Example 51, 1-(5-(2,6-Dimethoxypyrimidin-4-yl)oxazol-2-yl)-7-phenylheptan-1-one]",–,–,0.005 µM
"COc1ncc(-c2cnc(C(=O)CCCCCCc3ccccc3)o2)c(OC)n1 [Example 53, 1-(5-(2,4-Dimethoxypyrimidin-5-yl)oxazol-2-yl)-7-phenylheptan-1-one]",–,–,0.026 µM
